This is an account of results in patent US11040976B2, “Substrate selective inhibitors of insulin-degrading enzyme (IDE) and uses thereof” (President and Fellows of Harvard College, priority 2015, dated 2021).

This experiment has as its system human IDE Ile362Gln and Gly362Gln. Briefly: Activity assay of mutant human IDE variants Ile362Gln and Gly362Gln with IDE inhibitors. It is filed as biochemical. An excerpt:
N-His6-tagged human IDE42-1019 construct was introduced in the expression plasmid pTrcHis-A (Invitrogen) using primers for uracil-specific excision reactions (USER) by Taq (NEB) and Pfu polymerases (PfuTurbo CX®, Agilent), as described in more detail in Maianti et al. (Nature (2014), 511, 94-98), which is incorporated by reference herein. The IDE gene was amplified with the primers 5′-[…]-dU-[…] (SEQ ID NO: 26) and 5′-[…] G-dU-[…] (SEQ ID NO: 27) (underlined sequences represent overhangs, and italics highlight the PCR priming sequence). Similarly, the pTrcHis-A vector was amplified for USER cloning with the primers 5′-[…]-dU-[…] (SEQ ID NO: 28) and 5′-[…]-dU-[…] (SEQ ID NO: 29). Mutant IDE constructs were generated by amplifying the full vector construct with USER cloning primers introducing a mutant overhang (see Table E6).
Recombinant His6-tagged proteins were purified by Ni(II)-affinity chromatography (IMAC sepharose beads, GE Healthcare®) according to the manufacturer's instructions. The cell pellets were re-suspended in pH 8.0 buffer containing 50 mM phosphate, 300 mM NaCl, 10 mM imidazole, 1% Triton X-100 and 1 mM tris(2-carboxyethyl)phosphine hydrochloride (TCEP), and were lysed by probe sonication for 4 minutes at <4° C., followed by clearing of cell debris by centrifugation at 10,000 g for 25 minutes at 4° C. […]

Structures are written as SMILES.

For `Cc1cccc(-c2ccc([C@@H]3[C@@H](CO)N4CCCCN(S(=O)(=O)c5ccccc5C)C[C@@H]34)cc2)c1` [compound 297], the “effect of mutations Ile362Gln and Gly362Gln on inhibition potency” value is listed as “reduce the inhibition potency”.
